In series [1] the target is T1, Gal-4 hPPARγ (Homo sapiens, UniProt P37231).
T1 construct: Plasmids pGal4-hPPARα, pGal4-hPPARγ, pGal4-hPPARδ and pG5-TK-pGL3 were constructed as previously described by Staels, Bart, et al., Nature 1998 Jun; 25
T1 sequence (P37231 238-505 limits assumed): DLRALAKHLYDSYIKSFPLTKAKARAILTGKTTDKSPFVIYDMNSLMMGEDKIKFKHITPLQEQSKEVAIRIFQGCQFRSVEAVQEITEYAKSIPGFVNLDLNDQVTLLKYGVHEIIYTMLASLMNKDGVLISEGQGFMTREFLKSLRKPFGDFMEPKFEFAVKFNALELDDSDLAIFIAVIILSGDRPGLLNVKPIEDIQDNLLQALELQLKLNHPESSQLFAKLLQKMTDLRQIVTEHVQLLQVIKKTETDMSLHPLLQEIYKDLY
Nature of the series: Gal4-hPPARγ transient transfection reporter assay in Cos cells. In kind it is cell-based. The following applies: luciferase reporter, 24 hours with compound, scale 1-5, read-out: Gal-4 hPPAR γ EC50 (scaled number). In short, it runs like this:
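Cos cells transiently co-transfected with Gal4-hPPAR expression plasmid, pG5-TK-pGL3 luciferase reporter and β-galactosidase control, then treated 24 h with increasing compound concentrations in DMEM containing 0.2% FCS. Luciferase normalised to β-galactosidase; EC50 from curve fit, at least three experiments.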
On the technique in general: Reporter assays use an easily measured gene product as a stand-in for the process of interest.

Series [2] in a line: Metabolism studies using human liver microsomal preparations. The settings on record: for HLMs Predominant Enzyme: comparison of half life with and without NADPH: Esterase, CYP or Mixed; for half-life: pH 7.4, read-out: HLMs t1/2. In kind it is in vitro ADME. In outline:
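Pooled human liver microsomes in 50 mM Tris pH 7.4 with 5 mM MgCl2 at 37° C, with or without NADPH-generating system; buffer-only control for stability. Parent loss and acid metabolite formation followed by LC-MS/MS over 0–90 min. Half-life reported with NADPH; comparison with (−)NADPH assigns predominant enzyme.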
A general note: Liver microsomes are a subcellular fraction often used to study metabolism.

Series [3] concerns the target T2, Full Length hPPARγ (Homo sapiens, UniProt P37231).
T2 construct: Full Length; expressed in transfected cells; host or cells: Cos cells
T2 sequence (P37231 1-505): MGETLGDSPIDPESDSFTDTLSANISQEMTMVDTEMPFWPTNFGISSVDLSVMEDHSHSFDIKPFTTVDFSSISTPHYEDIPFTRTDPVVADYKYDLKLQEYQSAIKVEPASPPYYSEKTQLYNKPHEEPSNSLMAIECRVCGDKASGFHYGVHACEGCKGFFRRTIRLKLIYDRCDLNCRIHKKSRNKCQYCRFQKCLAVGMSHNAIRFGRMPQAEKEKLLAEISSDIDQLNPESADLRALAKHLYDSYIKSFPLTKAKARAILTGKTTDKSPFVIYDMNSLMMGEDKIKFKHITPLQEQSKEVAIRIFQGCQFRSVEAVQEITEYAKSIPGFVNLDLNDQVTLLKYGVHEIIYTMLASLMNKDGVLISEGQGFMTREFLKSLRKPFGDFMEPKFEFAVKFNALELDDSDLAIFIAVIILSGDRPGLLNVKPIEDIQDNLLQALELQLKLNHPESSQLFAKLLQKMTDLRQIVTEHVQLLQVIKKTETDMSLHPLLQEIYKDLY
Description: Full length hPPARγ transfection assay. In kind it is cell-based. The following applies: full length receptor; scale 1-5; read-out: Full Length hPPAR γ EC50 (scaled number). How it is done:
Transient transfection assays. Cos cells were seeded in 60-mm dishes at a density of 5.5×10^5 cells/dish in Dulbecco's modified Eagle's medium (DMEM) supplemented with 10% fetal calf serum (FCS) and incubated at 37° C. for 24 hours before transfection. Cells were transfected in Opti-MEM (Gibco; Invitrogen, Carlsbad, Calif.) without FCS for 3 hours at 37° C., using polyethylenimine, with reporter and expression plasmids. The plasmid pBluescript (Stratagene, La Jolla, Calif.) was used as carrier DNA to set the final amount of DNA to 5.5 μg/dish. The pCMV-b-galactosidase expression plasmid was cotransfected as a control for transfection efficiency. Transfection was stopped by the addition of DMEM supplemented with 10% FCS, and cells were then incubated at 37° C. After 16 hours, cells were trypsinized and seeded in 96-well plates at the density of 2×10^4 cells/well and incubated for 6 hours in 10% FCS-containing DMEM. Cells were then incubated for 24 hours in DMEM containing 0.2% FCS and increasing concentrations of the compound tested or vehicle (DMSO). At the end of the experiment, cells were washed once with ice-cold PBS, lysed and the luciferase and b-galactosidase assays were performed in a luminometer and spectrophotomer. Transfection efficiencies were normalized with the b-galactosidase activity assay. Half-maximal effective concentration (EC50) was estimated using Prism software (GraphPad). All transfection experiments were performed at least three times.
In the following tables, proprietary compound EC50 values for hPPAR α, β, δ and γ are shown. The EC50 value is the concentration of a drug that induces a response halfway between the baseline and maximum, and is commonly used as a measure of drug potency. EC50 values are reported on a scale of 1 through 5, wherein the value scale is defined for each receptor as follows: […]

Setting [4] is: pooled human liver microsomes, with NADPH (CYP system active), 37° C.

Molecules are shown by their SMILES.

A word on the EC50: it is the concentration that produces a half-maximal response.

In the case of `CCCCCCCCn1c(COC(=O)c2ccc(OC(C)(C)C(=O)O)c(OC)c2)nn(Cc2ccc(C)cc2)c1=O` [Compound 186, 2-(2-methoxy-4-(((1-(4-methylbenzyl)-4-octyl-5-oxo-4,5-dihydro-1H-1,2,4-triazol-3-yl)methoxy)carbonyl)phenoxy)-2-methylpropanoic acid], the EC50 in series [1] and in series [3] was 51 to 200 nM throughout. Moreover, the “HLMs Predominant Enzyme” value in series [2] is “CYP”. Also, the half-life in series [2] (setting [4]) is 42 min.
In the case of `CCCCCCn1c(COC(=O)c2ccc(SC(C)(C)C(=O)O)cc2)nn(Cc2ccc(C(C)(C)C)cc2)c1=O` [Compound 187, 2-(4-(((1-(4-tert-butylbenzyl)-4-hexyl-5-oxo-4,5-dihydro-1H-1,2,4-triazol-3-yl)methoxy)carbonyl)phenylthio)-2-methylpropanoic acid], the EC50 in series [1] and in series [3] was 51 to 200 nM each time. Further, the “HLMs Predominant Enzyme” value in series [2] was “Mixed”. Besides, the half-life in series [2] (setting [4]) was found to be 38 min.
Consider `CCCCCCCn1c(COC(=O)c2ccc(SC(C)(C)C(=O)O)cc2)nn(Cc2ccc(C(C)(C)C)cc2)c1=O` [Compound 189, 2-(4-(((1-(4-tert-butylbenzyl)-4-heptyl-5-oxo-4,5-dihydro-1H-1,2,4-triazol-3-yl)methoxy)carbonyl)phenylthio)-2-methylpropanoic acid], for which the EC50 in series [1] lay in the range of 1 to 50 nM; in series [3], 51 to 200 nM. Moreover, the “HLMs Predominant Enzyme” value in series [2] is given as “CYP”. Further, the half-life in series [2] (setting [4]) is 90 min.
The matching figures for `CCCCCCCCn1c(COC(=O)c2ccc(SC(C)(C)C(=O)O)cc2)nn(Cc2ccc(C)cc2)c1=O` [Compound 161, 2-methyl-2-(4-(((1-(4-methylbenzyl)-4-octyl-5-oxo-4,5-dihydro-1H-1,2,4-triazol-3-yl)methoxy)carbonyl)phenylthio)propanoic acid]: 51 to 200 nM, 201 to 999 nM, “Esterase” and 12 min.
As for `CCCCCCn1c(COC(=O)c2ccc(SC(C)(C)C(=O)O)cc2)nn(Cc2ccc(C)cc2)c1=O` [Compound 160, 2-(4-(((4-hexyl-1-(4-methylbenzyl)-5-oxo-4,5-dihydro-1H-1,2,4-triazol-3-yl)methoxy)carbonyl)phenylthio)-2-methylpropanoic acid], the EC50 lay within 51 to 200 nM in series [1] and 201 to 999 nM in series [3]. In addition, in series [2] (setting [4]), the “HLMs t1/2 (min)” value is reported as “Stable”.
For the compound `CCCCCCCn1c(COC(=O)c2ccc(SC(C)(C)C(=O)O)cc2)nn(Cc2ccc(C)cc2)c1=O` [Compound 191, 2-(4-(((4-heptyl-1-(4-methylbenzyl)-5-oxo-4,5-dihydro-1H-1,2,4-triazol-3-yl)methoxy)carbonyl)phenylthio)-2-methylpropanoic acid], the EC50 in series [1] and in series [3] was 51 to 200 nM each time. In series [2], the “HLMs Predominant Enzyme” value is on record as “Esterase”. In series [2] (setting [4]), the half-life is 15 min.
